This note sets out measurements from patent US20260022142A1, “MACROCYCLIC IMMUNOMODULATORS” (Bristol-Myers Squibb Company, priority 2022, published 2026).

By IC50 is commonly meant the midpoint of a concentration-inhibition curve.

Bridge positions count the residues as written; N and C are the ends. Square brackets hold non-standard residues; d marks the D form. Peptide text beside a SMILES is read from it. * marks the point of attachment. ξ: configuration not given here. Phe(4-CONH2) = NC(=O)c1ccc(C[C@H](N)C(=O)O)cc1; Bip = N[C@@H](Cc1ccc(-c2ccccc2)cc1)C(=O)O; Phe(3-Me) = Cc1cccc(C[C@H](N)C(=O)O)c1; Val(3-OH) = CC(C)(O)[C@H](N)C(=O)O; Cha = N[C@@H](CC1CCCCC1)C(=O)O; Thr(3ξ) = CC(O)[C@H](N)C(=O)O; 12Ado = NCCCCCCCCCCCC(=O)O; Carboxymethyl = O=C(O)C*; Orn = NCCC[C@H](N)C(=O)O; Dab = NCC[C@H](N)C(=O)O; Dap = NC[C@H](N)C(=O)O

This experiment deals with T1, PD-1/PD-L1 interaction (PE-labeled human PD-L1-Ig binding to Jurkat cell line over-expressing human PD-1) (Homo sapiens, UniProt Q15116).
T1 construct: expressed in transfected cells; host or cells: Jurkat
T1 sequence (Q15116 25-288): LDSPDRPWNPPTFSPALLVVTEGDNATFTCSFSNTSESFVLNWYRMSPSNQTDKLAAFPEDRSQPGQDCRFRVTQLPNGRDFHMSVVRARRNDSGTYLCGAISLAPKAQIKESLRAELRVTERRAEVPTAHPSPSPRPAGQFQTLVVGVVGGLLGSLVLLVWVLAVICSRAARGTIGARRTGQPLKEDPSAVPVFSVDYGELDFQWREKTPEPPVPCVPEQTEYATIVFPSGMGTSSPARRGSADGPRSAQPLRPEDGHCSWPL
The experiment can be described thus: Jurkat-PD-1 Cell Binding High-Content Screening Assay (CBA). In kind it is cell-based. The conditions noted are these: Jurkat cell line over-expressing human PD-1; PE-labeled PD-L1-Ig 20 nM final; read-out: Jurkat hPD1-PDL1 IC50. The method, boiled down:
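First, compound is added to PD-1-expressing Jurkat cells in serum-containing DMEM and left 2 h at 37° C. Next, PE-conjugated PD-L1-Ig is introduced at 20 nM final concentration for 1 hour. Finally, cells are fixed in 4% paraformaldehyde with Hoechst 33342, washed and imaged.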
With `Cc1cccc(C[C@@H]2NC(=O)[C@H](CC(=O)O)NC(=O)[C@H](Cc3ccc(OCC(=O)O)cc3)NC(=O)[C@H](Cc3ccc(C(N)=O)cc3)NC(=O)CSC[C@@H](C(=O)N[C@@H](CCCN)C(=O)N[C@@H](CO)C(=O)NCCCCCCCCCCCC(=O)O)NC(=O)[C@H](CO)NC(=O)[C@H](C(C)(C)O)NC(=O)[C@H](CC3CCCCC3)NC(=O)[C@H](CCN)NC(=O)[C@@H](CC(C)C)NC(=O)[C@H](CCCN)NC(=O)[C@H](Cc3ccc(OCC(=O)O)cc3)NC(=O)[C@H](Cc3ccc(-c4ccccc4)cc3)NC(=O)[C@H](Cc3ccc(OCC(=O)O)cc3)NC2=O)c1` [Compound 3618] ({CH2CO}-[Phe(4-CONH2)]Y(Carboxymethyl)D[Phe(3-Me)]Y(Carboxymethyl)[Bip]Y(Carboxymethyl)[Orn][dL][Dab][Cha][Val(3-OH)]SC[Orn]S[12Ado]-OH; thioether N-14), the IC50 stood at 21.8 nM.

On to `CC(=O)NCCCC[C@@H]1NC(=O)[C@H](Cc2ccc(-c3ccccc3)cc2)NC(=O)[C@H](Cc2ccc(O)cc2)NC(=O)[C@H](Cc2cccc(C)c2)NC(=O)[C@H](CC(=O)O)NC(=O)[C@H](Cc2ccc(OCC(=O)O)cc2)NC(=O)[C@H](CN)NC(=O)CSC[C@@H](C(=O)N[C@@H](CCN)C(=O)N[C@@H](CO)C(=O)NCCCCCCCCCCCC(=O)O)NC(=O)[C@H](CCCN)NC(=O)[C@H](C(C)C)NC(=O)[C@H](CC2CCCCC2)NC(=O)[C@H](CCN)NC(=O)[C@@H](CC(C)C)NC(=O)[C@H](CCCN)NC1=O` [Compound 3619] ({CH2CO}-[Dap]Y(Carboxymethyl)D[Phe(3-Me)]Y[Bip]K(Ac)[Orn][dL][Dab][Cha]V[Orn]C[Dab]S[12Ado]-OH; thioether N-14), for which the IC50 was found to be 13.4 nM.

As for `CC(=O)NCCCC[C@@H]1NC(=O)[C@H](Cc2ccc(-c3ccccc3)cc2)NC(=O)[C@H](Cc2ccc(O)cc2)NC(=O)[C@H](Cc2cccc(C)c2)NC(=O)[C@H](CC(=O)O)NC(=O)[C@H](Cc2ccc(OCC(=O)O)cc2)NC(=O)[C@H](CCN)NC(=O)CSC[C@@H](C(=O)N[C@@H](CCN)C(=O)N[C@@H](CO)C(=O)NCCCCCCCCCCCC(=O)O)NC(=O)[C@H](CCCN)NC(=O)[C@H](C(C)(C)O)NC(=O)[C@H](CC2CCCCC2)NC(=O)[C@H](CCN)NC(=O)[C@@H](CC(C)C)NC(=O)[C@H](CCCN)NC1=O` [Compound 3620] ({CH2CO}-[Dab]Y(Carboxymethyl)D[Phe(3-Me)]Y[Bip]K(Ac)[Orn][dL][Dab][Cha][Val(3-OH)][Orn]C[Dab]S[12Ado]-OH; thioether N-14), the IC50 is 37.2 nM.

On to `CC(=O)NCCCC[C@@H]1NC(=O)[C@H](Cc2ccc(-c3ccccc3)cc2)NC(=O)[C@H](Cc2ccc(O)cc2)NC(=O)[C@H](Cc2cccc(C)c2)NC(=O)[C@H](CC(=O)O)NC(=O)[C@H](Cc2ccc(OCC(=O)O)cc2)NC(=O)[C@H](CCN)NC(=O)CSC[C@@H](C(=O)N[C@@H](CCN)C(=O)N[C@@H](CO)C(=O)NCCCCCCCCCCCC(=O)O)NC(=O)[C@H](CCC(=O)O)NC(=O)[C@H](C(C)(C)O)NC(=O)[C@H](CC2CCCCC2)NC(=O)[C@H](CCN)NC(=O)[C@@H](CC(C)C)NC(=O)[C@H](CCCN)NC1=O` [Compound 3621] ({CH2CO}-[Dab]Y(Carboxymethyl)D[Phe(3-Me)]Y[Bip]K(Ac)[Orn][dL][Dab][Cha][Val(3-OH)]EC[Dab]S[12Ado]-OH; thioether N-14), for which the IC50 stood at 24.3 nM.

Regarding `CC(=O)NCCCC[C@@H]1NC(=O)[C@H](Cc2ccc(-c3ccccc3)cc2)NC(=O)[C@H](Cc2ccc(O)cc2)NC(=O)[C@H](Cc2cccc(C)c2)NC(=O)[C@H](CC(=O)O)NC(=O)[C@H](Cc2ccc(OCC(=O)O)cc2)NC(=O)[C@H](C(C)O)NC(=O)CSC[C@@H](C(=O)N[C@@H](CCN)C(=O)N[C@@H](CO)C(=O)NCCCCCCCCCCCC(=O)O)NC(=O)[C@H](CCCN)NC(=O)[C@H](C(C)(C)O)NC(=O)[C@H](CC2CCCCC2)NC(=O)[C@H](CCN)NC(=O)[C@@H](CC(C)C)NC(=O)[C@H](CCCN)NC1=O` (stereo partly drawn) [Compound 3622] ({CH2CO}-[Thr(3ξ)]Y(Carboxymethyl)D[Phe(3-Me)]Y[Bip]K(Ac)[Orn][dL][Dab][Cha][Val(3-OH)][Orn]C[Dab]S[12Ado]-OH; thioether N-14), the half-maximal inhibitory concentration (IC50) came to 18.3 nM.

In the case of `CC(=O)NCCCC[C@@H]1NC(=O)[C@H](Cc2ccc(-c3ccccc3)cc2)NC(=O)[C@H](Cc2ccc(O)cc2)NC(=O)[C@H](Cc2cccc(C)c2)NC(=O)[C@H](CC(=O)O)NC(=O)[C@H](Cc2ccc(OCC(=O)O)cc2)NC(=O)[C@H](CCN)NC(=O)CSC[C@@H](C(=O)N[C@@H](CCN)C(=O)N[C@@H](CO)C(=O)NCCCCCCCCCCCC(=O)O)NC(=O)[C@H](CCCN)NC(=O)[C@H](C(C)O)NC(=O)[C@H](CC2CCCCC2)NC(=O)[C@H](CCN)NC(=O)[C@@H](CC(C)C)NC(=O)[C@H](CCCN)NC1=O` (stereo partly drawn) [Compound 3623] ({CH2CO}-[Dab]Y(Carboxymethyl)D[Phe(3-Me)]Y[Bip]K(Ac)[Orn][dL][Dab][Cha][Thr(3ξ)][Orn]C[Dab]S[12Ado]-OH; thioether N-14), the IC50 stood at 62.3 nM.

`Cc1cccc(C[C@@H]2NC(=O)[C@H](CC(=O)O)NC(=O)[C@H](Cc3ccc(OCC(=O)O)cc3)NC(=O)[C@H](CCN)NC(=O)CSC[C@@H](C(=O)N[C@@H](CCN)C(=O)N[C@@H](CO)C(=O)NCCCCCCCCCCCC(=O)O)NC(=O)[C@H](CCCN)NC(=O)[C@H](C(C)(C)O)NC(=O)[C@H](CC3CCCCC3)NC(=O)[C@H](CCN)NC(=O)[C@@H](CC(C)C)NC(=O)[C@H](CCCN)NC(=O)[C@H](Cc3ccc(OCC(=O)O)cc3)NC(=O)[C@H](Cc3ccc(-c4ccccc4)cc3)NC(=O)[C@H](Cc3ccc(OCC(=O)O)cc3)NC2=O)c1` [Compound 3624] ({CH2CO}-[Dab]Y(Carboxymethyl)D[Phe(3-Me)]Y(Carboxymethyl)[Bip]Y(Carboxymethyl)[Orn][dL][Dab][Cha][Val(3-OH)][Orn]C[Dab]S[12Ado]-OH; thioether N-14): the half-maximal inhibitory concentration (IC50) worked out at 21.5 nM.

`Cc1cccc(C[C@@H]2NC(=O)[C@H](CC(=O)O)NC(=O)[C@H](Cc3ccc(OCC(=O)O)cc3)NC(=O)[C@H](CCN)NC(=O)CSC[C@@H](C(=O)N[C@@H](CCN)C(=O)N[C@@H](CO)C(=O)NCCCCCCCCCCCC(=O)O)NC(=O)[C@H](CO)NC(=O)[C@H](C(C)(C)O)NC(=O)[C@H](CC3CCCCC3)NC(=O)[C@H](CCN)NC(=O)[C@@H](CC(C)C)NC(=O)[C@H](CCCN)NC(=O)[C@H](Cc3ccc(OCC(=O)O)cc3)NC(=O)[C@H](Cc3ccc(-c4ccccc4)cc3)NC(=O)[C@H](Cc3ccc(OCC(=O)O)cc3)NC2=O)c1` [Compound 3625] ({CH2CO}-[Dab]Y(Carboxymethyl)D[Phe(3-Me)]Y(Carboxymethyl)[Bip]Y(Carboxymethyl)[Orn][dL][Dab][Cha][Val(3-OH)]SC[Dab]S[12Ado]-OH; thioether N-14): the IC50 came to 23.3 nM.

Regarding `Cc1cccc(C[C@@H]2NC(=O)[C@H](CC(=O)O)NC(=O)[C@H](Cc3ccc(OCC(=O)O)cc3)NC(=O)[C@H](CCN)NC(=O)CSC[C@@H](C(=O)N[C@@H](CCN)C(=O)NCCCCCCCCCCCC(=O)O)NC(=O)[C@H](CCCN)NC(=O)[C@H](C(C)(C)O)NC(=O)[C@H](CC3CCCCC3)NC(=O)[C@H](CCN)NC(=O)[C@@H](CC(C)C)NC(=O)[C@H](CCCN)NC(=O)[C@H](Cc3ccc(OCC(=O)O)cc3)NC(=O)[C@H](Cc3ccc(-c4ccccc4)cc3)NC(=O)[C@H](Cc3ccc(OCC(=O)O)cc3)NC2=O)c1` [Compound 3626] ({CH2CO}-[Dab]Y(Carboxymethyl)D[Phe(3-Me)]Y(Carboxymethyl)[Bip]Y(Carboxymethyl)[Orn][dL][Dab][Cha][Val(3-OH)][Orn]C[Dab][12Ado]-OH; thioether N-14), the 50% inhibitory concentration (IC50) amounted to 7.3 nM.
